Some test systems named below: SF-268; M14; A498; SNB-75; UO-31; HOP-92; K562; EKVX; SF-295; NCI-H23; NCI/ADR-RES; DU-145; HOP-62; HCC 2998; OVCAR-4; SK-MEL-2; SW-620; U-251; SNB-19; MOLT-4.
What all share (test): growth of human tumour cells (NCI), 48 h

The structures appear in SMILES notation.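 Where inhibition never reached the appropriate level, the endpoint shown equals the highest concentration tested. Otherwise, values were interpolated linearly from a five-concentration, 48-hour dose response in 96-well plates. At the GI50, growth is halved.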 The source made the active and inactive calls. Rule as the data show it: active = GI50 up to about 1.1 µM and inactive = higher.

Turning to `COc1cc(C(=O)c2cocc2C(=O)c2ccc3c(c2)OCO3)cc(OC)c1OC`, the GI50 is 0.802 µM (active) in the assay with SF-268; 1 µM (active) in the assay with M14; 4.05 µM (inactive) with A498; 0.336 µM (active) with SNB-75; 1.58 µM (inactive) in the assay with UO-31; 2.69 µM (inactive) in the assay with HOP-92. The GI50 with K562 was 0.151 µM (active); in the assay with EKVX, 6.64 µM (inactive); with SF-295, 0.351 µM (active); in the assay with NCI-H23 it was 0.826 µM (active); in the assay on NCI/ADR-RES, 0.142 µM (active); with DU-145, 1.17 µM (inactive). Besides, the GI50 in the assay with HOP-62 is 1 µM (active); in the assay on HCC 2998, 3.72 µM (inactive); in the assay with OVCAR-4 it was 18.5 µM (inactive); with SK-MEL-2, 0.619 µM (active); in the assay with SW-620, 0.316 µM (active); in the assay with U-251, 0.537 µM (active). For the same compound, the GI50 in the assay with SNB-19 is 0.933 µM (active); in the assay with MOLT-4, 991 nM (active).
In the case of `COC(=O)c1cc2c(n1S(=O)(=O)c1ccc(C)cc1)C(=O)C(=O)c1[nH]cc(C(=O)OCc3ccccc3)c1-2`, the GI50 is 0.221 µM (active) in the assay with SF-268; 0.0621 µM (active) in the assay on M14; 1.65 µM (inactive) in the assay with A498; 0.147 µM (active) with SNB-75; 0.211 µM (active) with UO-31; 0.236 µM (active) with HOP-92. Further, the GI50 in the assay with K562 was 0.0439 µM (active); in the assay on EKVX, 0.279 µM (active); with SF-295, 0.12 µM (active); in the assay with NCI-H23 it was 0.0649 µM (active); in the assay with NCI/ADR-RES it was 0.583 µM (active); with DU-145 it was 0.138 µM (active). Besides, the GI50 in the assay with HOP-62 was 0.149 µM (active); in the assay on HCC 2998, 0.218 µM (active); in the assay with OVCAR-4 it was 0.209 µM (active); in the assay on SK-MEL-2, 0.112 µM (active); in the assay on SW-620, 0.0514 µM (active); with U-251 it was 0.172 µM (active). The GI50 in the assay with SNB-19 was 0.191 µM (active); in the assay with MOLT-4, 64.7 nM (active).
Turning to `CCCCCCNCCCNc1c2ccccc2nc2cccc([N+](=O)[O-])c12`, the GI50 in the assay with SF-268 was 0.0163 µM (active); in the assay on M14, 0.0119 µM (active); in the assay with A498 it was 0.164 µM (active); with SNB-75, 0.0485 µM (active); in the assay with UO-31 it was 0.122 µM (active); in the assay on HOP-92, 0.0211 µM (active). The GI50 with K562 was 0.00376 µM (active); with EKVX it was 0.0246 µM (active); in the assay on SF-295 it was 0.0188 µM (active); with NCI-H23, 0.0116 µM (active); in the assay on NCI/ADR-RES, 0.33 µM (active); in the assay with DU-145, 0.00537 µM (active). The GI50 is 0.0245 µM (active) in the assay with HOP-62; 0.00665 µM (active) in the assay with HCC 2998; 0.0147 µM (active) with OVCAR-4; 0.0181 µM (active) in the assay with SK-MEL-2; 0.00481 µM (active) with SW-620; 0.0118 µM (active) with U-251. Moreover, the GI50 in the assay on SNB-19 was 0.0845 µM (active); in the assay on MOLT-4, 6.58 nM (active).
On to `Cn1c(-c2cccs2)cc(-c2ccccc2)c1-c1cccs1`, for which the GI50 was > 100 µM (inactive) with SF-268; 56.6 µM (inactive) in the assay with M14; > 100 µM (inactive) in the assay with A498; > 100 µM (inactive) in the assay with SNB-75; > 100 µM (inactive) in the assay on UO-31; > 100 µM (inactive) in the assay with HOP-92. In addition, the GI50 is > 100 µM (inactive) in the assay on K562; 22.7 µM (inactive) in the assay on EKVX; 17 µM (inactive) in the assay with SF-295; 4.75 µM (inactive) with NCI-H23; > 100 µM (inactive) with NCI/ADR-RES; > 100 µM (inactive) in the assay on DU-145. For the same compound, the GI50 in the assay with HOP-62 is 18.2 µM (inactive); in the assay on HCC 2998 it was > 100 µM (inactive); in the assay on OVCAR-4 it was 74.3 µM (inactive); with SK-MEL-2, 25.5 µM (inactive); in the assay with SW-620, > 100 µM (inactive); in the assay with U-251 it was 47.8 µM (inactive). The GI50 in the assay on SNB-19 was 12.2 µM (inactive); in the assay with MOLT-4, 66200 nM (inactive).
As to `O=C1CSC(c2ccc(Cl)cc2)N1c1ccc(-c2ccc(-n3c(-c4ccccc4)nc4ccccc4c3=O)cc2)cc1` (stereo not given), the GI50 with SF-268 is 21.6 µM (inactive); in the assay on M14, 43.6 µM (inactive); with A498, 51.2 µM (inactive); with SNB-75, 4 µM (inactive); in the assay with UO-31, 10.6 µM (inactive); with HOP-92, 11.4 µM (inactive). Further, the GI50 was 37.2 µM (inactive) in the assay with K562; 56.9 µM (inactive) in the assay on EKVX; 37.5 µM (inactive) in the assay on SF-295; 34.1 µM (inactive) in the assay on NCI-H23; 20 µM (inactive) in the assay on NCI/ADR-RES; 49.1 µM (inactive) with DU-145. In addition, the GI50 with HOP-62 is 61.4 µM (inactive); in the assay on HCC 2998, 93.5 µM (inactive); in the assay on OVCAR-4, 19.3 µM (inactive); in the assay on SK-MEL-2 it was 51.5 µM (inactive); with SW-620, 11.8 µM (inactive); in the assay on U-251, 21.8 µM (inactive). The GI50 in the assay on SNB-19 was 38.5 µM (inactive); with MOLT-4 it was 17700 nM (inactive).
With `Cc1ccccc1C(=O)N1CCc2c([nH]c3ccccc23)C1`, the GI50 is 35.6 µM (inactive) in the assay on SF-268; 19.4 µM (inactive) with M14; 21.5 µM (inactive) with A498; 20.6 µM (inactive) with SNB-75; 31.2 µM (inactive) with UO-31; 15.1 µM (inactive) in the assay on HOP-92. Also, the GI50 in the assay with K562 was 21.4 µM (inactive); in the assay with EKVX, 24.9 µM (inactive); with SF-295 it was 29.1 µM (inactive); with NCI-H23 it was 21.4 µM (inactive); in the assay on NCI/ADR-RES it was 22.6 µM (inactive); in the assay with DU-145, 25.6 µM (inactive). The GI50 with HOP-62 was 33.8 µM (inactive); in the assay with HCC 2998, 18.5 µM (inactive); in the assay with OVCAR-4 it was 22.6 µM (inactive); in the assay on SK-MEL-2, 12.8 µM (inactive); with SW-620, 27.6 µM (inactive); with U-251 it was 18 µM (inactive). Further, the GI50 is 41.7 µM (inactive) with SNB-19 and 27400 nM (inactive) in the assay with MOLT-4.
With `COc1cc2cc(C(=O)N3CC(CCl)c4ccc([N+](C)(C)Cc5ccccc5[N+](=O)[O-])cc43)[nH]c2c(OC)c1OC` (stereo not given), the GI50 was 1.71 µM (inactive) in the assay with SF-268; 1.67 µM (inactive) in the assay on M14; 0.398 µM (active) in the assay on A498; 4.09 µM (inactive) in the assay on SNB-75; 1.33 µM (inactive) in the assay on UO-31; 2.21 µM (inactive) with HOP-92. The GI50 in the assay with K562 is 1.71 µM (inactive); in the assay on EKVX, 3.78 µM (inactive); in the assay on SF-295, 1.47 µM (inactive); with NCI-H23, 0.762 µM (active); with NCI/ADR-RES, 1.76 µM (inactive); with DU-145, 1.53 µM (inactive). In addition, the GI50 with HOP-62 is 2.94 µM (inactive); in the assay on HCC 2998, 1.27 µM (inactive); in the assay with OVCAR-4, 2.41 µM (inactive); in the assay with SK-MEL-2 it was 1.89 µM (inactive); in the assay on SW-620, 2.01 µM (inactive); in the assay on U-251, 2.18 µM (inactive). Moreover, the GI50 was 2.36 µM (inactive) with SNB-19 and 630 nM (active) with MOLT-4.
Take `COc1ccc2nc3ccc(OC)cc3c([S+]([O-])Cc3ccc([N+](=O)[O-])cc3)c2c1` (stereo not given): the GI50 with SF-268 is 22.1 µM (inactive); in the assay with M14 it was 7.87 µM (inactive); in the assay on A498, 17.3 µM (inactive); with SNB-75, 19.3 µM (inactive); in the assay with UO-31, 6.44 µM (inactive); in the assay on HOP-92, 3.13 µM (inactive). Moreover, the GI50 in the assay with K562 was 3.56 µM (inactive); in the assay on EKVX, 16.6 µM (inactive); with SF-295, 20.6 µM (inactive); in the assay with NCI-H23 it was 6.7 µM (inactive); in the assay with NCI/ADR-RES, 21.2 µM (inactive); with DU-145, 2.58 µM (inactive). The GI50 was 16.1 µM (inactive) with HOP-62; 17.5 µM (inactive) in the assay with HCC 2998; 9.51 µM (inactive) with OVCAR-4; 17.9 µM (inactive) with SK-MEL-2; 2.18 µM (inactive) in the assay on SW-620; 10.9 µM (inactive) with U-251. Also, the GI50 was 21.3 µM (inactive) in the assay on SNB-19 and 1830 nM (inactive) with MOLT-4.
For `CC(=O)/C(=C/NC(=S)Nc1ccccc1)C(=O)Nc1ccccc1C`, the GI50 in the assay on SF-268 was 91 µM (inactive); in the assay on M14 it was > 100 µM (inactive); in the assay with A498, > 100 µM (inactive); in the assay on SNB-75, 49.9 µM (inactive); in the assay on UO-31, 41.8 µM (inactive); with HOP-92 it was 99.1 µM (inactive). The GI50 in the assay with K562 is 96.2 µM (inactive); with EKVX, > 100 µM (inactive); with SF-295, > 100 µM (inactive); in the assay on NCI-H23 it was > 100 µM (inactive); in the assay with NCI/ADR-RES, > 100 µM (inactive); in the assay on DU-145, > 100 µM (inactive). For the same compound, the GI50 in the assay on HOP-62, with HCC 2998, in the assay on OVCAR-4, with SK-MEL-2, in the assay with SW-620 and in the assay on U-251 was > 100 µM (inactive) each time. The GI50 with SNB-19 is > 100 µM (inactive); in the assay with MOLT-4, > 100000 nM (inactive).
Regarding `[O-][n+]1ccc(NO)c2ccccc21`, the GI50 with SF-268 was 0.565 µM (active); in the assay on M14, 1.93 µM (inactive); with A498, 0.673 µM (active); with SNB-75, 0.516 µM (active); in the assay on UO-31 it was 1.75 µM (inactive); in the assay on HOP-92 it was 2.07 µM (inactive). Moreover, the GI50 in the assay on K562 was 2 µM (inactive); in the assay with EKVX, 2.21 µM (inactive); with SF-295, 0.374 µM (active); in the assay with NCI-H23, 1.58 µM (inactive); in the assay on NCI/ADR-RES, 1.54 µM (inactive); with DU-145, 1.5 µM (inactive). Besides, the GI50 in the assay on HOP-62 was 1.79 µM (inactive); in the assay with HCC 2998 it was 0.253 µM (active); with OVCAR-4 it was 1.9 µM (inactive); with SK-MEL-2 it was 1.77 µM (inactive); in the assay with SW-620 it was 1.56 µM (inactive); in the assay on U-251 it was 0.658 µM (active). The GI50 is 2.34 µM (inactive) with SNB-19 and 600 nM (active) with MOLT-4.

Values taken from ChEMBL document CHEMBL1201862, “PubChem BioAssay data set” (2004).
